# Counter-ions that a name gives are not always drawn.
# Target: T1, ZAP-70 (Homo sapiens, UniProt P43403)
# T1 construct: endogenous in cells; host or cells: cell lysate
# T1 sequence (P43403 1-619): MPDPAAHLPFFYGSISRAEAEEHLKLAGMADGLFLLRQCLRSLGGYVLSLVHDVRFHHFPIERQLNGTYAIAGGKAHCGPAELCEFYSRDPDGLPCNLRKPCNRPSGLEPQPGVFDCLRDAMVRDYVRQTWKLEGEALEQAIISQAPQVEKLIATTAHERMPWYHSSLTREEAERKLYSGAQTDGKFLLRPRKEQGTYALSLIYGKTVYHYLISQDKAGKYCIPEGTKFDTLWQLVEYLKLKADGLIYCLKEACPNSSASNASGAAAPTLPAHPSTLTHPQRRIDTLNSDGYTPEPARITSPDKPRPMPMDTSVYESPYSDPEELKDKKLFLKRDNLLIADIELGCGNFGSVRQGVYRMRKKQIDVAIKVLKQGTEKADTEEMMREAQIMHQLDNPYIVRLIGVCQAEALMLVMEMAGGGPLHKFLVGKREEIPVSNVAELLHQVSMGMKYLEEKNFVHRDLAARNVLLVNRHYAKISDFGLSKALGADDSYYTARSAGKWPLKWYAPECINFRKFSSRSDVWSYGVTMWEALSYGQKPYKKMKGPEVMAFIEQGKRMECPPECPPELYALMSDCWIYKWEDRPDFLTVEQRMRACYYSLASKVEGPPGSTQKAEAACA
# Experiment: ZAP-70 kinobeads assay
# Type: binding
# Conditions: cell lysate
# Procedure: The compounds of the present invention as described in the previous examples can be tested in the ZAP-70 kinobeads assay as described (EP-A 1862802 and WO-A 2007/137867). Briefly, test compounds (at various concentrations) and the affinity matrix with the immobilized aminopyrido-pyrimidine ligand 24 are added to cell lysate aliquots and allowed to bind to the proteins in the lysate sample. After the incubation time the beads with captured proteins are separated from the lysate. Bound proteins are then eluted and the presence ZAP-70 is detected and quantified using a specific antibody in a dot blot procedure and the Odyssey infrared detection system.
row,Compound,IC50 [µM]
1,"CS(=O)(=O)Nc1ccccc1Nc1nc(Nc2ccccc2F)ncc1F [Example 1, N-(2-(5-fluoro-2-(2-fluorophenylamino)pyrimidin-4-ylamino)phenyl)methanesulfonamide]",1 to 10
2,"CS(=O)(=O)Nc1ccccc1Nc1nc(Nc2ccccc2OC(F)F)ncc1Br [Example 6, N-(2-(5-bromo-2-(2-(difluoromethoxy)phenylamino)pyrimidin-4-ylamino)phenyl)methanesulfonamide]",1 to 10
3,"COc1ccc(OC)c(Nc2ncc(Br)c(Nc3ccccc3NS(C)(=O)=O)n2)c1 [Example 7, N-(2-(5-bromo-2-(2,5-dimethoxyphenylamino)pyrimidin-4-ylamino)phenyl)methanesulfonamide]",0.1 to 1
4,"COc1ccccc1Nc1ncc(F)c(Nc2ccccc2NS(C)(=O)=O)n1 [Example 8, N-(2-(5-fluoro-2-(2-methoxyphenylamino)pyrimidin-4-ylamino)phenyl)methanesulfonamide]",1 to 10
5,"COc1cccc(Nc2ncc(Br)c(Nc3ccccc3NS(C)(=O)=O)n2)c1OC [Example 9, N-(2-(5-bromo-2-(2,3-dimethoxyphenylamino)pyrimidin-4-ylamino)phenyl)methanesulfonamide]",1 to 10
6,"CS(=O)(=O)Nc1ccccc1Nc1nc(Nc2cc(F)ccc2F)ncc1F [Example 10, N-(2-(2-(2,5-difluorophenylamino)-5-fluoropyrimidin-4-ylamino)phenyl)methanesulfonamide]",1 to 10
7,"COc1ccc(C)c(Nc2ncc(F)c(Nc3ccccc3NS(C)(=O)=O)n2)c1 [Example 13, N-(2-(5-fluoro-2-(5-methoxy-2-methylphenylamino)pyrimidin-4-ylamino)phenyl)methanesulfonamide]",1 to 10
8,"COc1ccc(Nc2ncc(F)c(Nc3ccccc3NS(C)(=O)=O)n2)c(OC)c1 [Example 14, N-(2-(2-(2,4-dimethoxyphenylamino)-5-fluoropyrimidin-4-ylamino)phenyl)methanesulfonamide]",1 to 10
9,"COc1ccc(OC)c(Nc2ncc(F)c(Nc3ccccc3NS(C)(=O)=O)n2)c1 [Example 15, N-(2-(2-(2,5-dimethoxyphenylamino)-5-fluoropyrimidin-4-ylamino)phenyl)methanesulfonamide]",1 to 10
10,"CS(=O)(=O)Nc1ccccc1Nc1nc(Nc2ccccc2F)ncc1Br [Example 17, N-(2-(5-bromo-2-(2-fluorophenylamino)pyrimidin-4-ylamino)phenyl)methanesulfonamide hydrochloride]",0.1 to 1
11,"CS(=O)(=O)Nc1ccccc1Nc1nc(Nc2ccccc2Cl)ncc1Br [Example 18, N-(2-(5-bromo-2-(2-chlorophenylamino)pyrimidin-4-ylamino)phenyl)methanesulfonamide hydrochloride]",1 to 10
12,"CCc1ccccc1Nc1ncc(Br)c(Nc2ccccc2NS(C)(=O)=O)n1 [Example 19, N-(2-(5-bromo-2-(2-ethylphenylamino)pyrimidin-4-ylamino)phenyl)methanesulfonamide hydrochloride]",1 to 10
13,"CS(=O)(=O)Nc1ccccc1Nc1nc(Nc2ccccc2O)ncc1Br [Example 20, N-(2-(5-bromo-2-(2-hydroxyphenylamino)pyrimidin-4-ylamino)phenyl)methanesulfonamide hydrochloride]",0.1 to 1
14,"COc1ccccc1Nc1ncc(Br)c(Nc2ccccc2NS(C)(=O)=O)n1 [Example 21, N-(2-(5-bromo-2-(2-methoxyphenylamino)pyrimidin-4-ylamino)phenyl)methanesulfonamide hydrochloride]",0.1 to 1
15,"COc1ccc(Nc2nc(Nc3cc(OC)ccc3OC)ncc2Cl)c(NS(C)(=O)=O)c1 [Example 22, N-(2-(5-chloro-2-(2,5-dimethoxyphenylamino)pyrimidin-4-ylamino)-5-methoxyphenyl)methanesulfonamide]",0.1 to 1
16,"COc1ccc(Nc2nc(Nc3cc(OC)ccc3OC)ncc2Br)c(NS(C)(=O)=O)c1 [Example 23, N-(2-(5-bromo-2-(2,5-dimethoxyphenylamino)pyrimidin-4-ylamino)-5-methoxyphenyl)methanesulfonamide]",0.1 to 1
17,"Cc1ccccc1Nc1ncc(Br)c(Nc2ccccc2NS(C)(=O)=O)n1 [Example 24, N-(2-(5-bromo-2-(2-methylphenylamino)pyrimidin-4-ylamino)phenyl)methanesulfonamide hydrochloride]",0.1 to 1

row,Compound,IC50 [µM]
1,"COc1ccc(Nc2nc(Nc3cc(OC)c(OC)cc3OC)ncc2F)c(NS(C)(=O)=O)c1 [Example 25, N-(2-(5-fluoro-2-(2,4,5-trimethoxyphenylamino)pyrimidin-4-ylamino)-5-methoxyphenyl)methanesulfonamide]",0.1 to 1
2,"COc1ccc(Nc2ncc(Br)c(Nc3ccccc3NS(C)(=O)=O)n2)c(OC)c1 [Example 26, N-(2-(5-bromo-2-(2,4-dimethoxyphenylamino)pyrimidin-4-ylamino)phenyl)methanesulfonamide]",0.1 to 1
3,"COc1ccc(Nc2nc(Nc3cc(OC)ccc3OC)ncc2F)c(NS(C)(=O)=O)c1 [Example 27, N-(2-(2-(2,5-dimethoxyphenylamino)-5-fluoropyrimidin-4-ylamino)-5-methoxyphenyl)methanesulfonamide]",1 to 10
4,"COc1cc(OCCCN2CCCCC2)ccc1Nc1ncc(Br)c(Nc2ccccc2NS(C)(=O)=O)n1 [Example 28, N-(2-(5-bromo-2-(2-methoxy-4-(3-(piperidin-1-yl)propoxy)phenylamino)pyrimidin-4-ylamino)phenyl)methanesulfonamide]",≤ 0.1
5,"COc1cc(OC)c(OC)cc1Nc1ncc(Br)c(Nc2ccccc2NS(C)(=O)=O)n1 [Example 31, N-(2-(5-bromo-2-(2,4,5-trimethoxyphenylamino)pyrimidin-4-ylamino)phenyl)methanesulfonamide]",0.1 to 1
6,"COc1ccc(Nc2ncc(Cl)c(Nc3ccc(OC)cc3NS(C)(=O)=O)n2)c(F)c1 [Example 33, N-(2-(5-chloro-2-(2-fluoro-4-methoxyphenylamino)pyrimidin-4-ylamino)-5-methoxyphenyl)methanesulfonamide]",0.1 to 1
7,"COc1ccc(Nc2nc(Nc3ccc(OC)cc3OC)ncc2Cl)c(NS(C)(=O)=O)c1 [Example 34, N-(2-(5-chloro-2-(2,4-dimethoxyphenylamino)pyrimidin-4-ylamino)-5-methoxyphenyl)methanesulfonamide]",0.1 to 1
8,"COc1ccc(Nc2ncc(Cl)c(Nc3ccc(OC)cc3NS(C)(=O)=O)n2)c(C)c1 [Example 35, N-(2-(5-chloro-2-(4-methoxy-2-methylphenylamino)pyrimidin-4-ylamino)-5-methoxyphenyl)methanesulfonamide]",0.1 to 1
9,"COc1ccc(Nc2nc(Nc3ccc(OC)nc3OC)ncc2Cl)c(NS(C)(=O)=O)c1 [Example 36, N-(2-(5-chloro-2-(2,6-dimethoxypyridin-3-ylamino)pyrimidin-4-ylamino)-5-methoxyphenyl)methanesulfonamide]",0.1 to 1
10,"COc1ccc(Nc2nc(Nc3cc(F)c(OC)cc3OC)ncc2Cl)c(NS(C)(=O)=O)c1 [Example 38, N-(2-(5-chloro-2-(5-fluoro-2,4-dimethoxyphenylamino)pyrimidin-4-ylamino)-5-methoxyphenyl)methanesulfonamide hydrochloride]",0.1 to 1
11,"COc1ccc(Nc2nc(Nc3cc(C)c(OC)cc3OC)ncc2Cl)c(NS(C)(=O)=O)c1 [Example 39, N-(2-(5-chloro-2-(2,4-dimethoxy-5-methylphenylamino)pyrimidin-4-ylamino)-5-methoxyphenyl)methanesulfonamide]",0.1 to 1
12,"COc1ccc(Nc2nc(Nc3cc4c(cc3OC)OCCO4)ncc2Cl)c(NS(C)(=O)=O)c1 [Example 40, N-(2-(5-chloro-2-(7-methoxy-2,3-dihydrobenzo[b][1,4]dioxin-6-ylamino)pyrimidin-4-ylamino)-5-methoxyphenyl)methanesulfonamide]",0.1 to 1
13,"COc1ccc(Nc2ncc(Cl)c(Nc3ccc(OC)cc3NS(C)(=O)=O)n2)c(O)c1 [Example 41, N-(2-(5-chloro-2-(2-hydroxy-4-methoxyphenylamino)pyrimidin-4-ylamino)-5-methoxyphenyl)methanesulfonamide]",0.1 to 1
14,"COc1ccc(Nc2nc(Nc3cc(F)ccc3OC)ncc2Cl)c(NS(C)(=O)=O)c1 [Example 42, N-(2-(5-chloro-2-(5-fluoro-2-methoxyphenylamino)pyrimidin-4-ylamino)-5-methoxyphenyl)methanesulfonamide]",0.1 to 1
15,"COc1ccc(Nc2nc(Nc3ccc(F)cc3OC)ncc2Cl)c(NS(C)(=O)=O)c1 [Example 43, N-(2-(5-chloro-2-(4-fluoro-2-methoxyphenylamino)pyrimidin-4-ylamino)-5-methoxyphenyl)methanesulfonamide]",0.1 to 1
16,"COc1ccc(Nc2nc(Nc3cccc(OC)c3OC)ncc2Cl)c(NS(C)(=O)=O)c1 [Example 44, N-(2-(5-chloro-2-(2,3-dimethoxyphenylamino)pyrimidin-4-ylamino)-5-methoxyphenyl)methanesulfonamide]",0.1 to 1

# — US20120142667A1, “PYRIMIDINE DERIVATIVES AS ZAP-70 INHIBITORS” (priority 2009, published 2012)
